From patent publication US20060069132A1, “Azolecarboxamide herbicides” (priority 2004, published 2006)

What was measured:
barnyardgrass [1] = test: Test A pre-/postemergence herbicide test; format: in vivo, Echinochloa crus-galli
Outline: (§1)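 Sandy loam soil given preemergence directed spray; plants at 2 to 10 cm, one- to two-leaf stage, sprayed to runoff postemergence, compounds in non-phytotoxic solvent with surfactant. Injury rated visually versus untreated controls after about ten greenhouse days, 0 (no effect) to 100 (complete control); dash means not tested.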

large crabgrass [2] = test: Test A pre-/postemergence herbicide test; format: in vivo, Digitaria sanguinalis
Outline: as §1

giant foxtail [3] = test: Test A pre-/postemergence herbicide test; format: in vivo, Setaria faberi
Outline: as §1

morningglory [4] = test: Test A pre-/postemergence herbicide test; format: in vivo, Ipomoea spp.
Outline: as §1

redroot pigweed = test: Test A pre-/postemergence herbicide test; format: in vivo, Amaranthus retroflexus
Outline: as §1

velvetleaf [5] = test: Test A pre-/postemergence herbicide test; format: in vivo, Abutilon theophrasti
Outline: as §1

barnyardgrass [6] = test: Test B pre-/postemergence herbicide test; format: in vivo, Echinochloa crus-galli; details: for Barnyardgrass plant response rating: postemergence, visual rating, scale 0 (no effect) to 100 (complete control)
Outline: (§2)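 Evaluation is visual, comparing treated with control plants on a scale where 0 means no effect and 100 means full control. Treatments were preemergence, or postemergence on seedlings 2–18 cm tall, and held 13–15 days in the greenhouse.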

Surinam grass = test: Test B pre-/postemergence herbicide test; format: in vivo, Urochloa decumbens; details: for Surinam Grass plant response rating: postemergence, visual rating, scale 0 (no effect) to 100 (complete control)
Outline: (§3)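 Seeds were planted and treated preemergence with compounds formulated in a non-phytotoxic solvent mixture containing surfactant, while plants at the 1- to 4-leaf stage (2 to 18 cm) received postemergence sprays. Flooded paddy plants were grown to the 2-leaf stage. After 13 to 15 days in a greenhouse, injury was visually rated 0–100 against untreated controls.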

cocklebur = test: Test B pre-/postemergence herbicide test; format: in vivo, Xanthium strumarium; details: for Cocklebur plant response rating: postemergence, visual rating, scale 0 (no effect) to 100 (complete control)
Outline: as §2

corn = test: Test B pre-/postemergence herbicide test; format: in vivo, Zea mays; details: for Corn plant response rating: postemergence, visual rating, scale 0 (no effect) to 100 (complete control)
Outline: as §3

large crabgrass [7] = test: Test B pre-/postemergence herbicide test; format: in vivo, Digitaria sanguinalis; details: for Crabgrass, Large plant response rating: postemergence, visual rating, scale 0 (no effect) to 100 (complete control)
Outline: as §3

giant foxtail [8] = test: Test B pre-/postemergence herbicide test; format: in vivo, Setaria faberi; details: for Foxtail, Giant plant response rating: postemergence, visual rating, scale 0 (no effect) to 100 (complete control)
Outline: as §3

lambsquarters = test: Test B pre-/postemergence herbicide test; format: in vivo, Chenopodium album; details: for Lambsquarters plant response rating: postemergence, visual rating, scale 0 (no effect) to 100 (complete control)
Outline: as §3

morningglory [9] = test: Test B pre-/postemergence herbicide test; format: in vivo, Ipomoea coccinea; details: for Morningglory plant response rating: postemergence, visual rating, scale 0 (no effect) to 100 (complete control)
Outline: as §2

pigweed = test: Test B pre-/postemergence herbicide test; format: in vivo, Amaranthus retroflexus; details: for Pigweed plant response rating: postemergence, visual rating, scale 0 (no effect) to 100 (complete control)
Outline: as §3

rice [10] = test: Test B pre-/postemergence herbicide test; format: in vivo, Oryza sativa; details: preemergence
Outline: as §3

velvetleaf [11] = test: Test B pre-/postemergence herbicide test; format: in vivo, Abutilon theophrasti; details: for Velvetleaf plant response rating: postemergence, visual rating, scale 0 (no effect) to 100 (complete control)
Outline: as §3

blackgrass = test: Test B postemergence herbicide test; format: in vivo, Alopecurus myosuroides; details: postemergence, visual rating, scale 0 (no effect) to 100 (complete control)
Outline: (§4)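 Each value is a visual 0–100 response rating taken against controls 13 to 15 days after treatment in the greenhouse. Plants received formulated chemical postemergence at the 1- to 4-leaf stage or, in flooded paddy, at the 2-leaf stage.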

wheat = test: Test B postemergence herbicide test; format: in vivo, Triticum aestivum; parameters: key to Wheat plant response rating: 0 = no effect, 100 = complete control; details: postemergence, visual rating, scale 0 (no effect) to 100 (complete control)
Outline: (§5)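 Postemergence plants were sprayed with formulated test chemicals at 2 to 18 cm height (1- to 4-leaf stage); paddy species were grown to the 2-leaf stage. After 13 to 15 days in a greenhouse, injury was rated visually against untreated controls on a 0–100 scale (0 = no effect, 100 = complete control).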

wild oat = test: Test B postemergence herbicide test; format: in vivo, Avena fatua; details: postemergence, visual rating, scale 0 (no effect) to 100 (complete control)
Outline: as §5

rice [12] = test: Test B flooded paddy test; format: in vivo, Oryza sativa; details: 1000 g ai/ha, visual rating, scale 0 to 100 (0 no effect, 100 complete control), 13 to 15 days
Outline: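 Visual ratings, 0 (no effect) to 100 (complete control), made versus controls after 13–15 d greenhouse. Paddy plants treated at 2-leaf stage; postemergence plants at 1- to 4-leaf stage, 2–18 cm tall.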

[13] = tested on: small flower umbrella sedge; test: Test B flooded paddy test; format: in vivo, Cyperus difformis; details: 1000 g ai/ha, visual rating, scale 0 to 100 (0 no effect, 100 complete control), 13 to 15 days
Outline: as §4

ducksalad = test: Test B flooded paddy test; format: in vivo, Heteranthera limosa; details: 1000 g ai/ha, visual rating, scale 0 to 100 (0 no effect, 100 complete control), 13 to 15 days
Outline: as §4

barnyardgrass [14] = test: Test B flooded paddy test; format: in vivo, Echinochloa crus-galli; details: 1000 g ai/ha, visual rating, scale 0 to 100 (0 no effect, 100 complete control), 13 to 15 days
Outline: as §4

[15] = Postemergence, 500 g ai/ha, 0 to 100 scale, 0 no effect, 100 complete control
[16] = Postemergence, 2000 g ai/ha, 0 to 100 scale, 0 no effect, 100 complete control
[17] = Preemergence, 2000 g ai/ha, visual rating, 0 to 100 scale (0 no effect, 100 complete control)
[18] = preemergence, 500 g ai/ha, visual injury, 0 to 100 scale (0 no effect, 100 complete control)
[19] = 125 g ai/ha, 0 = no effect, 100 = complete control, preemergence
[20] = 500 g ai/ha, visual rating 0-100, 0 no effect, 100 complete control, preemergence

Cc1nc(C(C)(C)C)sc1C(=O)Nc1cccc(C(=O)NCC(F)(F)F)c1 [Compound 201]
Barnyardgrass plant response rating (barnyardgrass [1]; [15]): 10
Plant response rating, Barnyardgrass (barnyardgrass [1]; [16]): 20
Barnyardgrass plant response rating (barnyardgrass [1]; [17]): 50
Barnyardgrass plant response rating (barnyardgrass [1]; [18]): 0
Crabgrass, Large plant response rating (large crabgrass [2]; [15]): 10
Plant response rating, Crabgrass, Large (large crabgrass [2]; [16]): 20
Crabgrass, Large plant response rating (large crabgrass [2]; [17]): 70
Crabgrass, Large plant response rating (large crabgrass [2]; [18]): 35
Foxtail, Giant plant response rating (giant foxtail [3]; [15]): 0
Plant response rating, Foxtail, Giant (giant foxtail [3]; [16]): 10
Foxtail, Giant plant response rating (giant foxtail [3]; [17]): 15
Foxtail, Giant plant response rating (giant foxtail [3]; [18]): 0
Morningglory plant response rating (morningglory [4]; [15]): 25
Plant response rating, Morningglory (morningglory [4]; [16]): 30
Morningglory plant response rating (morningglory [4]; [17]): 5
Morningglory plant response rating (morningglory [4]; [18]): 0
Pigweed plant response rating (redroot pigweed; [15]): 40
Plant response rating, Pigweed (redroot pigweed; [16]): 55
Pigweed plant response rating (redroot pigweed; [17]): 95
Pigweed plant response rating (redroot pigweed; [18]): 40
Velvetleaf plant response rating (velvetleaf [5]; [15]): 10
Plant response rating, Velvetleaf (velvetleaf [5]; [16]): 10
Velvetleaf plant response rating (velvetleaf [5]; [17]): 35
Velvetleaf plant response rating (velvetleaf [5]; [18]): 0
Barnyardgrass plant response rating (0 to 100 scale) (barnyardgrass [6]; [19]): 0
Plant response rating, Barnyardgrass (barnyardgrass [6]; [20]): 10
Barnyardgrass plant response rating (barnyardgrass [6]; 125 g ai/ha): 0
Barnyardgrass plant response rating (barnyardgrass [6]; 500 g ai/ha): 0
Surinam Grass plant response rating (0 to 100 scale) (Surinam grass; [19]): 0
Plant response rating, Surinam Grass (Surinam grass; [20]): 0
Surinam Grass plant response rating (Surinam grass; 125 g ai/ha): 0
Surinam Grass plant response rating (Surinam grass; 500 g ai/ha): 10
Cocklebur plant response rating (0 to 100 scale) (cocklebur; [19]): 0
Plant response rating, Cocklebur (cocklebur; [20]): 0
Cocklebur plant response rating (cocklebur; 125 g ai/ha): 10
Cocklebur plant response rating (cocklebur; 500 g ai/ha): 10
Corn plant response rating (0 to 100 scale) (corn; [19]): 0
Plant response rating, Corn (corn; [20]): 0
Corn plant response rating (corn; 125 g ai/ha): 10
Corn plant response rating (corn; 500 g ai/ha): 20
Crabgrass, Large plant response rating (0 to 100 scale) (large crabgrass [7]; [19]): 0
Plant response rating, Crabgrass, Large (large crabgrass [7]; [20]): 60
Crabgrass, Large plant response rating (large crabgrass [7]; 125 g ai/ha): 0
Crabgrass, Large plant response rating (large crabgrass [7]; 500 g ai/ha): 10
Foxtail, Giant plant response rating (0 to 100 scale) (giant foxtail [8]; [19]): 0
Plant response rating, Foxtail, Giant (giant foxtail [8]; [20]): 0
Foxtail, Giant plant response rating (giant foxtail [8]; 125 g ai/ha): 0
Foxtail, Giant plant response rating (giant foxtail [8]; 500 g ai/ha): 0
Lambsquarters plant response rating (0 to 100 scale) (lambsquarters; [19]): 0
Plant response rating, Lambsquarters (lambsquarters; [20]): 30
Lambsquarters plant response rating (lambsquarters; 125 g ai/ha): 40
Lambsquarters plant response rating (lambsquarters; 500 g ai/ha): 40
Morningglory plant response rating (0 to 100 scale) (morningglory [9]; [19]): 0
Plant response rating, Morningglory (morningglory [9]; [20]): 10
Morningglory plant response rating (morningglory [9]; 125 g ai/ha): 0
Morningglory plant response rating (morningglory [9]; 500 g ai/ha): 30
Pigweed plant response rating (0 to 100 scale) (pigweed; [19]): 0
Plant response rating, Pigweed (pigweed; [20]): 20
Pigweed plant response rating (pigweed; 125 g ai/ha): 10
Pigweed plant response rating (pigweed; 500 g ai/ha): 40
Rice plant response rating (0 to 100 scale) (rice [10]; 125 g ai/ha, 0 = no effect, 100 = complete control): 0
Plant response rating, Rice (rice [10]; 500 g ai/ha, visual rating 0-100, 0 no effect, 100 complete control): 0
Velvetleaf plant response rating (0 to 100 scale) (velvetleaf [11]; [19]): 0
Plant response rating, Velvetleaf (velvetleaf [11]; [20]): 10
Velvetleaf plant response rating (velvetleaf [11]; 125 g ai/ha): 0
Velvetleaf plant response rating (velvetleaf [11]; 500 g ai/ha): 0
Blackgrass plant response rating (blackgrass; 125 g ai/ha): 0
Blackgrass plant response rating (blackgrass; 500 g ai/ha): 0
Wheat plant response rating (wheat; 125 g ai/ha): 0
Wheat plant response rating (wheat; 500 g ai/ha): 0
Oat, Wild plant response rating (wild oat; 125 g ai/ha): 10
Oat, Wild plant response rating (wild oat; 500 g ai/ha): 10
Rice plant response rating (rice [12]): 0
Sedge, Umbrella plant response rating [13]: 0
Ducksalad plant response rating (ducksalad): 0
Barnyardgrass plant response rating (barnyardgrass [14]): 0
